Reference: PubChem BioAssay (NCI)
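Assay format: 96-well plates, 48-hour exposure. GI50 marks 50% less growth. The concentration for full growth arrest is given as TGI.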

What was measured:
Assay in all cases: growth of human tumour cells (NCI), 48 h
MCF7 breast = tested on: MCF7 breast
HS 578T breast = tested on: HS 578T breast
IGROV1 ovarian = tested on: IGROV1 ovarian
LOX IMVI melanoma = tested on: LOX IMVI melanoma
MDA-MB-435 = tested on: MDA-MB-435
SK-MEL-28 melanoma = tested on: SK-MEL-28 melanoma
786-0 renal = tested on: 786-0 renal
COLO 205 colon = tested on: COLO 205 colon
MOLT-4 leukemia = tested on: MOLT-4 leukemia
U251 CNS = tested on: U251 CNS
MDA-MB-231 breast = tested on: MDA-MB-231 breast
SK-MEL-2 melanoma = tested on: SK-MEL-2 melanoma
HCT-15 colon = tested on: HCT-15 colon
ACHN renal = tested on: ACHN renal
CAKI-1 renal = tested on: CAKI-1 renal
SR leukemia = tested on: SR leukemia
HCC-2998 colon = tested on: HCC-2998 colon
CCRF-CEM leukemia = tested on: CCRF-CEM leukemia
SK-OV-3 ovarian = tested on: SK-OV-3 ovarian
SF-295 CNS = tested on: SF-295 CNS
SF-268 CNS = tested on: SF-268 CNS
NCI/ADR-RES ovarian = tested on: NCI/ADR-RES ovarian
SK-MEL-5 melanoma = tested on: SK-MEL-5 melanoma
OVCAR-3 ovarian = tested on: OVCAR-3 ovarian
NCI-H226 lung = tested on: NCI-H226 lung
K-562 leukemia = tested on: K-562 leukemia
SW-620 colon = tested on: SW-620 colon
SN12C renal = tested on: SN12C renal
KM12 colon = tested on: KM12 colon
UO-31 renal = tested on: UO-31 renal
NCI-H522 lung = tested on: NCI-H522 lung
SNB-75 CNS = tested on: SNB-75 CNS
A549 NSCLC = tested on: A549 NSCLC
OVCAR-5 ovarian = tested on: OVCAR-5 ovarian
A498 renal = tested on: A498 renal
UACC-257 melanoma = tested on: UACC-257 melanoma
NCI-H460 lung = tested on: NCI-H460 lung
DU-145 prostate = tested on: DU-145 prostate
T-47D breast = tested on: T-47D breast
TK-10 renal = tested on: TK-10 renal
RPMI-8226 leukemia = tested on: RPMI-8226 leukemia
OVCAR-8 ovarian = tested on: OVCAR-8 ovarian
M14 melanoma = tested on: M14 melanoma
HOP-62 NSCLC = tested on: HOP-62 NSCLC
UACC-62 melanoma = tested on: UACC-62 melanoma
NCI-H23 lung = tested on: NCI-H23 lung
OVCAR-4 ovarian = tested on: OVCAR-4 ovarian
SNB-19 CNS = tested on: SNB-19 CNS
BT-549 breast = tested on: BT-549 breast
HOP-92 NSCLC = tested on: HOP-92 NSCLC
EKVX NSCLC = tested on: EKVX NSCLC
HCT-116 colon = tested on: HCT-116 colon
PC-3 prostate = tested on: PC-3 prostate
HT29 colon = tested on: HT29 colon
HL-60(TB) leukemia = tested on: HL-60(TB) leukemia

`C=C1C[C@@H]2CC[C@@]34CC5O[C@H]6C(O[C@H]7CC[C@H](CC(=O)O[C@@H]8[C@@H](C)[C@@H]9O[C@@H]%10C[C@]%11(C[C@@H]%12O[C@]%13(C[C@H](C)[C@@H]%14O[C@@H]%15CC(C(COC(C)=O)OC(C)=O)O[C@@H]%15C[C@@H]%14O%13)C[C@H](C)[C@@H]%12O%11)O[C@@H]%10C[C@@H]9O[C@H]8CC8O[C@@H](CC[C@@H]1O2)C[C@@H](C)C8(O)CO)O[C@@H]7[C@@H]6O3)[C@H]5O4` (stereo partly specified) was tested. Which TGI (MCF7 breast) did it give?
Its TGI is greater than 1 µM.

What about the TGI (HS 578T breast) of the same compound?
The TGI was 0.801 µM.

What about the TGI (IGROV1 ovarian) of the same compound?
Its TGI is greater than 1 µM.

What about the TGI (LOX IMVI melanoma) of the same compound?
The TGI was greater than 1 µM.

What about the TGI (MDA-MB-435) of the same compound?
The TGI was greater than 0.879 µM.

And the TGI (SK-MEL-28 melanoma)?
The TGI was greater than 1 µM.

And the TGI (786-0 renal)?
The TGI was greater than 1 µM.

What about the TGI (COLO 205 colon) of the same compound?
Its TGI is greater than 1000 nM.

And the TGI (MOLT-4 leukemia)?
Its TGI is greater than 1 µM.

And the TGI (U251 CNS)?
Its TGI is greater than 1 µM.

And the TGI (MDA-MB-231 breast)?
The TGI was greater than 1 µM.

And the TGI (SK-MEL-2 melanoma)?
Its TGI is greater than 1 µM.

And the TGI (HCT-15 colon)?
The TGI was greater than 1 µM.

And the TGI (ACHN renal)?
The TGI was greater than 1 µM.

What about the TGI (CAKI-1 renal) of the same compound?
The TGI was greater than 1 µM.

And the TGI (SR leukemia)?
Its TGI is greater than 1 µM.

And the TGI (HCC-2998 colon)?
Its TGI is greater than 0.225 µM.

And the TGI (CCRF-CEM leukemia)?
The TGI was greater than 1 µM.

And the TGI (SK-OV-3 ovarian)?
The TGI was greater than 1 µM.

What about the TGI (SF-295 CNS) of the same compound?
The TGI was greater than 1000 nM.

And the TGI (SF-268 CNS)?
Its TGI is greater than 0.955 µM.

And the TGI (NCI/ADR-RES ovarian)?
Its TGI is greater than 1000 nM.

And the TGI (SK-MEL-5 melanoma)?
Its TGI is greater than 1 µM.

What about the TGI (OVCAR-3 ovarian) of the same compound?
The TGI was greater than 1000 nM.

What about the TGI (NCI-H226 lung) of the same compound?
The TGI was greater than 1000 nM.

And the TGI (K-562 leukemia)?
The TGI was greater than 1 µM.

What about the TGI (SW-620 colon) of the same compound?
Its TGI is greater than 1 µM.

What about the TGI (SN12C renal) of the same compound?
The TGI was greater than 1 µM.

And the TGI (KM12 colon)?
Its TGI is greater than 0.792 µM.

What about the TGI (UO-31 renal) of the same compound?
Its TGI is greater than 1 µM.

And the TGI (NCI-H522 lung)?
Its TGI is 0.417 µM.

What about the TGI (SNB-75 CNS) of the same compound?
Its TGI is greater than 1 µM.

And the TGI (A549 NSCLC)?
The TGI was greater than 1 µM.

What about the TGI (OVCAR-5 ovarian) of the same compound?
Its TGI is greater than 1 µM.

What about the TGI (A498 renal) of the same compound?
Its TGI is greater than 1 µM.

What about the TGI (UACC-257 melanoma) of the same compound?
Its TGI is greater than 0.53 µM.

What about the TGI (NCI-H460 lung) of the same compound?
The TGI was greater than 0.955 µM.

And the TGI (DU-145 prostate)?
Its TGI is greater than 1 µM.

And the TGI (T-47D breast)?
The TGI was greater than 0.924 µM.

And the TGI (TK-10 renal)?
The TGI was greater than 1 µM.

And the TGI (RPMI-8226 leukemia)?
Its TGI is greater than 1 µM.

What about the TGI (OVCAR-8 ovarian) of the same compound?
The TGI was greater than 1 µM.

And the TGI (M14 melanoma)?
Its TGI is greater than 1 µM.

And the TGI (HOP-62 NSCLC)?
The TGI was greater than 1 µM.

And the TGI (UACC-62 melanoma)?
Its TGI is greater than 1 µM.

What about the TGI (NCI-H23 lung) of the same compound?
Its TGI is 0.997 µM.

And the TGI (OVCAR-4 ovarian)?
The TGI was greater than 1 µM.

What about the TGI (SNB-19 CNS) of the same compound?
Its TGI is greater than 1 µM.

What about the TGI (BT-549 breast) of the same compound?
The TGI was 0.751 µM.

And the TGI (HOP-92 NSCLC)?
The TGI was greater than 1 µM.

What about the TGI (EKVX NSCLC) of the same compound?
The TGI was greater than 1 µM.

And the TGI (HCT-116 colon)?
The TGI was greater than 1 µM.

And the TGI (PC-3 prostate)?
The TGI was greater than 1 µM.

What does the source list for `N#CC1=C(N)Oc2c(sc3c(Br)cccc23)C1c1ccc(F)cc1` (stereo unspecified)?
GI50 (MCF7 breast): 273 nM; TGI (MCF7 breast): 14.3 µM; GI50 (HS 578T breast): 851 nM; TGI (HS 578T breast): 52.7 µM; GI50 (IGROV1 ovarian): 605 nM; TGI (IGROV1 ovarian): 21 µM; GI50 (LOX IMVI melanoma): 695 nM; TGI (LOX IMVI melanoma): 15.2 µM; GI50 (MDA-MB-435): 69.1 nM; TGI (MDA-MB-435): 11.2 µM; GI50 (SK-MEL-28 melanoma): 1610 nM; TGI (SK-MEL-28 melanoma): 28.2 µM; GI50 (786-0 renal): 525 nM; TGI (786-0 renal): 14.2 µM; GI50 (COLO 205 colon): 366 nM; TGI (COLO 205 colon): 1690 nM; GI50 (MOLT-4 leukemia): 473 nM; TGI (MOLT-4 leukemia): 14.2 µM; GI50 (U251 CNS): 473 nM; TGI (U251 CNS): 13.4 µM; GI50 (MDA-MB-231 breast): 824 nM; TGI (MDA-MB-231 breast): 15.9 µM; GI50 (SK-MEL-2 melanoma): 487 nM; TGI (SK-MEL-2 melanoma): 31.1 µM; GI50 (HCT-15 colon): 390 nM; TGI (HCT-15 colon): 11.4 µM; GI50 (ACHN renal): 682 nM; TGI (ACHN renal): 17 µM; GI50 (CAKI-1 renal): 437 nM; TGI (CAKI-1 renal): 31.9 µM; GI50 (SR leukemia): 241 nM; TGI (SR leukemia): 11.9 µM; GI50 (HCC-2998 colon): 797 nM; TGI (HCC-2998 colon): 10.1 µM; GI50 (CCRF-CEM leukemia): 381 nM; TGI (CCRF-CEM leukemia): 13 µM; GI50 (SK-OV-3 ovarian): 471 nM; TGI (SK-OV-3 ovarian): 18.6 µM; GI50 (SF-295 CNS): 234 nM; TGI (SF-295 CNS): 815 nM; GI50 (SF-268 CNS): 1750 nM; TGI (SF-268 CNS): 24.2 µM; GI50 (NCI/ADR-RES ovarian): 215 nM; TGI (NCI/ADR-RES ovarian): 2630 nM; GI50 (SK-MEL-5 melanoma): 371 nM; TGI (SK-MEL-5 melanoma): 12.9 µM; GI50 (OVCAR-3 ovarian): 265 nM; TGI (OVCAR-3 ovarian): 917 nM; GI50 (K-562 leukemia): 275 nM; TGI (K-562 leukemia): 23.9 µM; GI50 (SW-620 colon): 476 nM; TGI (SW-620 colon): 34.6 µM; GI50 (SN12C renal): 1220 nM; TGI (SN12C renal): 18.7 µM; GI50 (KM12 colon): 361 nM; TGI (KM12 colon): 15.2 µM; GI50 (UO-31 renal): 515 nM; TGI (UO-31 renal): 20.1 µM; GI50 (NCI-H522 lung): 83.8 nM; TGI (NCI-H522 lung): 13.7 µM; GI50 (SNB-75 CNS): 327 nM; TGI (SNB-75 CNS): 18.9 µM; GI50 (A549 NSCLC): 519 nM; TGI (A549 NSCLC): 18 µM; GI50 (OVCAR-5 ovarian): 1770 nM; TGI (OVCAR-5 ovarian): 19.6 µM; GI50 (A498 renal): 314 nM; TGI (A498 renal): 16.7 µM; GI50 (UACC-257 melanoma): 13 µM; TGI (UACC-257 melanoma): 42.7 µM; GI50 (NCI-H460 lung): 376 nM; TGI (NCI-H460 lung): 14.6 µM; GI50 (DU-145 prostate): 333 nM; TGI (DU-145 prostate): 10.6 µM; GI50 (T-47D breast): 340 nM; TGI (T-47D breast): 19.7 µM; GI50 (TK-10 renal): 436 nM; TGI (TK-10 renal): 15.8 µM; GI50 (HT29 colon): 367 nM; TGI (HT29 colon): 10.3 µM; GI50 (RPMI-8226 leukemia): 482 nM; TGI (RPMI-8226 leukemia): 19.7 µM; GI50 (OVCAR-8 ovarian): 760 nM; TGI (OVCAR-8 ovarian): 24.4 µM; GI50 (M14 melanoma): 300 nM; TGI (M14 melanoma): 14.9 µM; GI50 (HOP-62 NSCLC): 354 nM; TGI (HOP-62 NSCLC): 17.9 µM; GI50 (UACC-62 melanoma): 512 nM; TGI (UACC-62 melanoma): 23.5 µM; GI50 (NCI-H23 lung): 416 nM; TGI (NCI-H23 lung): 17.9 µM; GI50 (OVCAR-4 ovarian): 650 nM; TGI (OVCAR-4 ovarian): 23.4 µM; GI50 (HL-60(TB) leukemia): 204 nM; TGI (HL-60(TB) leukemia): 1020 nM; GI50 (SNB-19 CNS): 719 nM; TGI (SNB-19 CNS): 25 µM; GI50 (BT-549 breast): 1010 nM; TGI (BT-549 breast): 19.3 µM; GI50 (HOP-92 NSCLC): 11.5 µM; TGI (HOP-92 NSCLC): 32.2 µM; GI50 (EKVX NSCLC): 534 nM; TGI (EKVX NSCLC): 23.2 µM; GI50 (HCT-116 colon): 409 nM; TGI (HCT-116 colon): 12.3 µM; GI50 (PC-3 prostate): 405 nM; TGI (PC-3 prostate): 18.1 µM
